Source: patent publication US8158623B2, “Heptacyclic compounds and the pharmaceutical uses thereof for preventing and treating diabetes and metabolic syndrome” (Shanghai Institute of Materia Medica Chinese Academy of …, priority 2007, dated 2012)
“Also recorded” adds a separate entry of the source.

Key:
[1] = test system: diet-induced obese (DIO) mice; experiment: Effect of F7 on body weight of diet-induced obese mice; assay type: in vivo, C57BL/6J mice; settings: for Body weight: oral 50 mg/kg daily; for Body weight reduction compared with the model control group: oral 50 mg/kg
Method: Male C57BL/6J mice were maintained a SPF facility (temperature: 22-24° C., humidity: 45-80%, illumination: 150-300 Lx, 12/12-hour light/dark cycle). When the mice were 4 weeks old, they were fed with a high-fat diet (purchased from Research Diets Inc. (USA), D12492i, fat content is 60%). After 12 weeks, diet-induced obese (DIO) mice model was established. Another group of mice fed with normal diet (D12450Bi, fat content is 10%) was used as a normal control group. The DIO mice were divided into two group according to body weights, and administrated orally F7 (50 mg/kg) or 0.1% Tween80 (the model control group) respectively, every afternoon just before black out for 5 weeks. The body weights of mice were measured daily, and the effect of Compound F7 on body weight was observed.

[2] = Properties of psoromic acid (solubility, acidity, stability); assay type: physicochemical
Method: As a preferred embodiment of the present invention, the compound of the present invention is psoromic acid, F7, a white needle crystal, which is odorless, faintly bitter, with melting point of 265-266° C.

[3] = test system: Acetyl CoA Carboxylase (ACC); experiment: Phosphorylation of ACC in HepG2 cell (Western blot); assay type: cell-based, Human; settings: HepG2, 50 uM, 5 minutes, P<0.01 or P<0.05
Method: (§1) Human hepatoma carcinoma cell strain (HepG2, purchased from the cell bank of Shanghai Institute of Cell Biology of Chinese Academy) was used. The Human hepatoma carcinoma cells were passaged by 0.1% pancreatin/0.02% EDTA digestion, and cultured in a incubator at 37° C. using MEM culture medium containing 10% FBS, under 5% CO2/95%.
(§2) HepG2 cells were cultured in 6-well plates for 48 hours until 70%-80% confluence. Serum starvation was started by changing medium with MEM containing 0.5% BSA. After starvation for 6 hours, cells were treated with the compounds (final concentration of 50 uM, containing 0.25% DMSO) for 5 minutes. The culture medium was discarded, and cells were harvested and washed for twice with pre-cooled PBS. The washing liquid was discarded, and any residual PBS was blotted dry. DMSO without heptacyclic compounds was used as control.
(§3) Extraction of total cellular protein: 150 μl/well homogenizing buffer (137 mM NaCl, 2.7 mM KCl, 1 mM MgCl2, 0.5 mM Na3VO4, 1% Triton X-100, 10% Glycerol, 20 mM Tris-HCl pH 7.8, 1 ug/ml Leupeptin, 0.2 mM PMSF, 10 mM NaF, 1 ug/ml Aprotinin, 1 mM EDTA, 1 mM DTT, 5 mM Sodium pyrophosphate, 1 mM Benzamidine) was added. Cells were collected into a 1.5 ml centrifuge tube using cell scraper. Cells were homogenized using sonicator (5 W of power) for 2 times (3 seconds per time), and shaken on a shaker for 1 hour. Supernatant (i.e., total cellular protein) was collected by centrifuging at 14000 rpm for 15 min at 4° C., and stored at −70° C. until use. After the protein concentration was determined by Bradford method, the supernatant was formulated as the loading sample with final concentration of 0.6 mg/ml. The whole preparation process was performed at 4° C.
(§4) Protein Electrophoresis: After being treated at 95° C. for 5 min, the loading sample was loaded (15 μg protein/lane). The protein was separated on 7.5% SDS-acrylamide gel for 1-2 hours under the voltage of 80-120 V.
(§5) Electrotransferring the protein and blocking the membrane: After electrophoresis was finished, the protein was transferred to PVDF membrane using semi-dry transferring slot based on 0.8 mA/cm^2 membrane area under the electric current of 80 mA for 2 hours. After that, the membrane was shaken for 2 hours with 7.5% skim milk/TTBS to block the membrane.
(§6) Antigen-antibody reaction: After the blocking process was finished, the membrane was incubated with primary antibody (antibody against phosphorylated ACC (P-ACC) and antibody against phosphorylated AMPK (P-AMPK), all purchased from Cell signaling (USA), with the working concentration of 1:1000) overnight at 4° C. The membrane was removed, and the primary antibody was recovered. The membrane was washed 5 times, each for 10 min in TTBS. The membrane was shaken for 2 hours with the secondary antibody (horseradish peroxidase-conjugated goat-anti-rabbit IgG antibody, purchased from Bio-rad (USA), with the working concentration of 1:5000) at room temperature. The secondary antibody was discarded. The membrane was washed 5 times, each for 10 min in TTBS in order to remove the unbound secondary antibody.
(§7) ECL exposure and development: Luminescent agents, ECL 1, 2, were mixed homogeneously, and incubated with the membrane for 3-5 min. The membrane was removed, wrapped in preservative film, and transferred into dark room for exposure. After exposure with X-film, the film was developed, washed, recorded and conserved.
(§8) Semi-quantitative analysis was performed through optical density scan using computer image analysis system. Grey level of the protein expression was calculated. The target grey level was divided by the grey level of internal standard, and a histogram was plotted, taking the normal group as 1 unit.

ob/ob mice [4] = experiment: Fasting blood glucose in ob/ob mice, several heptacyclic compounds, 8 days; assay type: in vivo
Method: Genetic spontaneous diabetes ob/ob mice were purchased from Jackson (USA), and maintained in a SPF facility (temperature: 22-24° C., humidity: 45-80%, illumination: 150-300 Lx, 12/12-hour light/dark cycle). Fasting blood glucose was determined for 3 days continuously when the mice were 7 weeks old. The mice were grouped into the treatment group and the control group (6 animals per group) according to the results determined. The treatment groups were administered orally with compound E9, G0 and F7 (psoromic acid) (100 mg/kg), and the control group was administered orally with a solution of 0.1% Tween 80 (blank control), once daily for 8 days. Fasting blood glucose in mice was determined at the end of experiment.

[5] = test system: AMP-Activated Protein Kinase (AMPK); experiment: Phosphorylation of AMPK in HepG2 cell (Western blot); assay type: cell-based, Human; settings: HepG2, 50 uM, 5 minutes, P<0.01 or P<0.05
Method: as §1, §2, §3, §4, §5, §6, §7, §8

ob/ob mice [6] = experiment: Effect of F7 on liver weight, liver triglyceride, ALT and AST; assay type: in vivo; settings: oral 50 mg/kg once daily for 3 weeks
Method: Genetic spontaneous diabetes ob/ob mice were purchased from Jackson (USA), and maintained in a SPF facility (temperature: 22-24° C., humidity: 45-80%, illumination: 150-300 Lx, 12/12-hour light/dark cycle). When the mice were 7 weeks old, the ob/ob mice were grouped into the treatment group and the control group (9 animals per group) according to the fasting blood glucose. The two groups were administered orally with compound F7 (50 mg/kg) and a solution of 0.1% Tween 80 respectively, once daily for 3 weeks. After 3 weeks, the animals were sacrificed and the liver was excised and weighed.
The triglyceride level in the liver was measured.

Q: What does the source list for COc1cc(C(=O)O)c2c(c1C)OC(=O)c1c(C)cc(O)c(C=O)c1O2 [Compound F7, 4-Formyl-3-hydroxy-8-methoxy-1,9-dimethyl-11-oxo-11H-dibenzo[b,e][1,4]dioxepine-6-carboxylic acid]?
A: Body weight ([1]; 0 day): 39.2 ± 3.8 g; Body weight ([1]; 7 day): 36.4 ± 3.8 g; Body weight ([1]; 14 day): 36.5 ± 4.2 g; Body weight ([1]; 21 day): 36.2 ± 3.9 g; Body weight ([1]; 28 day): 36.1 ± 2.6 g; Body weight ([1]; 35 day): 35.8 ± 2.0 g; Body weight reduction compared with the model control group ([1]; 1 week after administration): 2 g; Body weight reduction compared with the model control group ([1]; 5 weeks after administration): 4.5 g; Solubility in organic solvents ([2]; DMSO, ethanol, acetone and ethyl acetate): soluble in organic solvents; pH (acidic) ([2]; in water): 3-4; Stability ([2]; room temperature): stable at room temperature; Solubility in water ([2]; water): slightly soluble in water; Level of phosphorylation for ACC protein versus DMSO control [3]: improved significantly; Fasting Blood Glucose (ob/ob mice [4]; before administration): 11.94 ± 1.50 mM; Fasting blood glucose change in words (ob/ob mice [4]; dosed continuously for 8 days, P<0.05): reduced statistically significant; Fasting Blood Glucose (ob/ob mice [4]; oral 100 mg/kg once daily, after 8 days treatment): 8.12 ± 1.04 mM; Level of phosphorylation for AMPK protein versus DMSO control [5]: significant up-regulation; also recorded: increased significantly; Liver TG (ob/ob mice [6]): 106.9 ± 35.6 µmol/g; Liver Weight (ob/ob mice [6]): 2.67 ± 0.57 g; Weight of other organs or its ratio to body weight (ob/ob mice [6]): no effect; ALT (ob/ob mice [6]; serum): 161.5 ± 28.4 U/L; AST (ob/ob mice [6]; serum): 197.3 ± 24.6 U/L
